Reference: patent US20250129027A1 (APOGEE PHARMACEUTICALS, INC., priority 2023, published 2025)
≈ marks a conversion by molar mass, not a printed value. Read-outs that look alike come from different tables or passages of the source.

Columns and labels:
[1] = Aqueous solubility in PBS buffer pH 7.4 (LC-MS); format: physicochemical; settings: phosphate buffer, kinetic from dmso stock, PBS buffer pH 7.4, room temperature, spiked at 100 μM from DMSO stock
Procedure: Compounds as described herewith were analyzed for their aqueous solubility.
The aqueous solubility of compounds were determined using standard protocols. To illustrate the experimental protocol, the analysis of a representative compound is described. Exemplary compound of Example 158 (MW: 380.4 g/mol) was analyzed in a buffer system at specified pH (phosphate buffer, pH 7.4). This was accomplished by spiking a DMSO stock solution of the test compound at a final concentration of 100 μM in buffer.
Solubility calculation: This is a quantitative assay. The mixture at the end of the assay is filtered by 0.22 micron syringe filter and after 5× dilution in diluent, it was analyzed versus a calibration curve using LC-MS.

[2] = Pharmacokinetic study in rats, IV and oral gavage, with brain penetration; format: in vivo, rat; settings: for Cmax exposure relative to URB597: 10 mg/kg PO vs URB597 at 250 mg/kg; for clearance: read-out: CLp; for Vd: read-out: Vdss; for improvement in oral exposure maximums compared to URB597: dose-adjusted (25× lower dose, 10× Cmax); for Kp at 0.5 h: read-out: Brain/Plasma ratio (0.5 h); for Kp at 1 h: read-out: Brain/Plasma ratio (1 h)
Procedure: In pharmacokinetic (PK) studies, animals were administered compounds of the present disclosure and PK parameters were measured. Rats (male, Sprague Dawley) were administered compound of Example 158 at a dose of 1.0 mg/kg intravenously (IV) or 10 mg/kg via oral gavage (PO). Blood samples were taken at t=0.083, 0.25. 0.5, 1, 2, 4, 6, 8 and 24 h post-dose and the plasma was analyzed for concentration of test article (compound of Example 158). Using standard analytical methodology (HPLC analysis), the following parameters were obtained:
Rats were administered compound of Example 172 at a dose of 1.0 mg/kg intravenously (IV) or 10 mg/kg via oral gavage (PO). Using standard analytical methodology (HPLC analysis), the following parameters were obtained: […]

[3] = Plasma stability (LC-MS/MS, % parent compound remaining, half-life); format: in vitro ADME; settings: human plasma; for half-life at 1 μM: 37° C., 0-240 mins, read-out: Human Plasma Stability (t1/2, min); for plasma stability and/or aqueous solubility compared to reference compound URB597: see Table 5
Procedure: Exemplary compounds described herewith were assayed for plasma stability (various species).
Plasma was removed from deep freezer and allowed to thaw at room temperature (or at 37° C. if needed). Plasma was then centrifuged at 4,000 rpm at RT for 10 min and supernatant was collected and used for the assay: • Drug test tubes: 297 μL plasma/drug test tube, duplicate/drug. • Blank test tubes: 297 μL plasma/Blank test tube, duplicate, too. (Optional, if assay system is stable and consistent) • T0 plasma tube: […] X No. of total sample tubes+50 μL extra for T0 extraction. • (Note: equivalent proportion of solvent mixture as added in drug test tubes will be added before T0 extraction!)
Take out the pre-warmed plasma tubes from the 37° C. incubator. Add 3 μL of 100 μM stock solution (or, equivalent proportion of the solvent mixture to T0 plasma tube for T0 extraction) to each corresponding sample tubes in order, vortex gently (3×) to mix. Finish the sample tubes orderly and quickly, then transfer them to the Thermomixer (program & 37° C. ready), and start the Thermomixer. Record starting time on paper & start the timer for 15 min for the 1st sampling time point.
Now add the equivalent amount of solvent mixture to the T0 plasma tube, mix, and transfer 50 μL plasma to each of the T0 extracting tubes, vortex 20s and placed on ice. Vortex 10s again before centrifuging the samples at 14,000 rpm for 5 min at 4° C.
Repeat the above procedures at each time point (15, 30, 60, 120, 240 min) by transferring 50 μL plasma samples from the testing tubes to the corresponding extracting tubes, in the same order and time scheme as in the addition of the drug to the plasma samples at the beginning of the study.
• Kel=Slope of LN % PCR vs time
Half life (t½)=0.693/Kel (1)

human recombinant MAGL = human recombinant MAGL (Homo sapiens (Human), UniProt Q99685); test: In vitro inhibition of MAGL activity (inhibitor screening kit, 4-nitrophenylacetate); format: biochemical; settings: human recombinant MAGL
human recombinant MAGL, sequence (Q99685 whole entry): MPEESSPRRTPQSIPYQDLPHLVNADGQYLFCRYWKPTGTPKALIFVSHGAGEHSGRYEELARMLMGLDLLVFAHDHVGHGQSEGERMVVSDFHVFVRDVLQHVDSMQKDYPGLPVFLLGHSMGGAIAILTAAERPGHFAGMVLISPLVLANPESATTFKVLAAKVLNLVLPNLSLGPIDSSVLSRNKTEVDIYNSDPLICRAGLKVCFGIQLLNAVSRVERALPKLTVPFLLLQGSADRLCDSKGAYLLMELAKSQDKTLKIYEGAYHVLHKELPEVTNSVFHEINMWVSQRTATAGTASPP
Outline: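 Colorimetric kit assay: recombinant human MAGL hydrolyses 4-nitrophenylacetate to 4-nitrophenol, read by absorbance at 405-412 nm. Inhibition given as percentage of signal in treated versus untreated MAGL control.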

human recombinant FAAH = human recombinant FAAH (Homo sapiens (Human), UniProt O00519); test: In vitro inhibition of FAAH activity (fluorescent inhibitor screening kit, AMC arachidonoyl amide); format: biochemical
human recombinant FAAH, sequence (O00519 whole entry): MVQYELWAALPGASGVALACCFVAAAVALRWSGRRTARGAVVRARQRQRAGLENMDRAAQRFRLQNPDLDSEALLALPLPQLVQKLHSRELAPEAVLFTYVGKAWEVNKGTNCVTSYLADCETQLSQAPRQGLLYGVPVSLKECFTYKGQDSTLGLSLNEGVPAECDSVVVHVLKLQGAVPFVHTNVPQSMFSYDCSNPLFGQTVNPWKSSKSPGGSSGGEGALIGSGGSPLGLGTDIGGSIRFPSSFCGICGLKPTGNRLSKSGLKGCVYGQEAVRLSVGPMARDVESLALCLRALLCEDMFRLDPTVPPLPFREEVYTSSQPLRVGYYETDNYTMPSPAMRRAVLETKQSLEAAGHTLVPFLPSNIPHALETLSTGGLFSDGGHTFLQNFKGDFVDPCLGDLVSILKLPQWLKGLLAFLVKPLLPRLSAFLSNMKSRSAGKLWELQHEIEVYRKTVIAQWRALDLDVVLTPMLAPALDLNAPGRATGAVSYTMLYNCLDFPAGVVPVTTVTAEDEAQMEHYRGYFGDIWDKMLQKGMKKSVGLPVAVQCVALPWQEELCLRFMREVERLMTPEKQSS
Outline: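 Fluorogenic kit assay: AMC arachidonoyl amide is cleaved by human recombinant FAAH, read at 340-360/450-465 nm. Percent inhibition versus non-treated control; IC50 values derived from multiple compound concentrations where tested.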

[4] = oral dosing, dose of 250 mg/kg; cited from earlier work
[5] = Sprague Dawley, plasma, rat (SD, male), IV 1.0 mg/kg, read-out: AUC0-Y (ng h/mL), IV
[6] = Sprague Dawley, plasma, rat (SD, male), IV 1.0 mg/kg
[7] = Sprague Dawley, plasma, rat (SD, male), IV 1.0 mg/kg, read-out: t1/2 (h), IV (converted)
[8] = male, Sprague Dawley, brain, rat
[9] = male, Sprague Dawley, plasma, rat, PO 10.0 mg/kg
[10] = male, Sprague Dawley, plasma, rat, PO 10.0 mg/kg, read-out: AUC0-Y (ng h/mL), PO
[11] = male, Sprague Dawley, plasma, rat, PO 10.0 mg/kg, read-out: Cmax
[12] = male, Sprague Dawley, plasma, rat, PO 10.0 mg/kg, read-out: Cmax (ng/mL)
[13] = male, Sprague Dawley, plasma, rat, PO 10.0 mg/kg, read-out: t1/2 (h), PO (converted)
[14] = rat, PO 10.0 mg/kg vs IV 1.0 mg/kg
[15] = FAAH, values as listed in Table 5, read-out: IC50
[16] = human recombinant FAAH, read-out: Inhibition on FAAH activity (IC50)
[17] = male, Sprague Dawley, brain, intravenous, 1 mg/kg, rat

Row | SMILES | solubility [1] | half-life at 1 μM [3] | plasma stability and/or aqueous solubility compared to reference compound URB597 [3] | IC50 (human recombinant MAGL) | IC50 (human recombinant FAAH; [15]) | IC50 (human recombinant FAAH; [16]) | other results
1 | O=C(NC1CCCCC1)Oc1ccc(O)c(-c2cncc(-c3nnco3)c2)c1 [Example 158, 3-(5-(1,3,4-oxadiazol-2-yl)pyridin-3-yl)-4-hydroxyphenyl cyclohexylcarbamate] | 92.5 µM (≈ 35.2 µg/mL) | 350 min | improved plasma stability, improved aqueous solubility, or improved plasma stability and aqueous solubility | > 50000 nM | 127 nM | 124 nM | Cmax exposure relative to URB597 [2]: ~10 ×; AUC [2, 5]: 1340 ng·h/mL; clearance [2, 6]: 12 mL/min/kg; Vd [2, 6]: 0.62 L/kg; half-life [2, 7]: 0.31 h; improvement in oral exposure maximums compared to URB597 [2]: ~250 ×; Kp at 0.5 h [2, 8]: 0.01; Kp at 1 h [2, 8]: 0.02; Tmax [2, 9]: 30 min; AUC [2, 10]: 7050 ng·h/mL; Cmax [2, 11]: 5.05 µM; Cmax [2, 12]: 1920 ng/mL; half-life [2, 13]: 2.85 h; bioavailability ([2]; male, Sprague Dawley, rat, plasma, oral, 10 mg/kg, rat, PO 10.0 mg/kg vs IV 1.0 mg/kg, read-out: F (%) oral bioavailability): 53%; Co ([2]; rat (SD, male), IV 1.0 mg/kg): 4829 ng/mL; Co [uM] ([2]; rat (SD, male), IV 1.0 mg/kg): [12.7 uM]; AUC0-Y (ng h/mL), PO ([2]; rat, PO 10.0 mg/kg): 7054 ng·h/mL; t1/2 (h), PO ([2]; rat, PO 10.0 mg/kg): 2.85 h; F (%) oral bioavailability [2, 14]: > 50%
2 | COc1ccc(OC(=O)NC2CCCCCC2)cc1-c1cncc(-c2nnco2)c1 [Example 172, 3-(5-(1,3,4-oxadiazol-2-yl)pyridin-3-yl)-4-methoxyphenyl cycloheptylcarbamate] | 16.2 µM (≈ 6.62 µg/mL) | 361 min | improved plasma stability, improved aqueous solubility, or improved plasma stability and aqueous solubility | > 10000 nM | 112 nM | 112 nM | Cmax exposure relative to URB597 [2]: ~10 ×; AUC [2, 5]: 424 ng·h/mL; clearance [2, 6]: 40 mL/min/kg; Vd [2, 6]: 1.58 L/kg; half-life [2, 7]: 0.8 h; improvement in oral exposure maximums compared to URB597 [2]: ~250 ×; Kp at 0.5 h [2, 17]: 0.15; Kp at 1 h [2, 17]: 0.19; Kp at 0.5 h [2, 8]: 0.15; Kp at 1 h [2, 8]: 0.19; Kp ([2]; male, Sprague Dawley, brain, rat, time not stated, read-out: Brain/Plasma ratio): > 0.15; Tmax [2, 9]: 30 min; AUC [2, 10]: 5260 ng·h/mL; Cmax [2, 11]: 5.91 µM; Cmax [2, 12]: 2250 ng/mL; half-life [2, 13]: 1.25 h; Co ([2]; rat (SD, male), IV 1.0 mg/kg): 1528 ng/mL; Co [uM] ([2]; rat (SD, male), IV 1.0 mg/kg): [4.02 uM]; AUC0-Y (ng h/mL), PO ([2]; rat, PO 10.0 mg/kg): 5257 ng·h/mL; F (%) oral bioavailability [2, 14]: >100%
3 | CSc1ccc(OC(=O)NC2CCCCCC2)cc1-c1cncc(-c2nnco2)c1 [Example 191, 3-(5-(1,3,4-oxadiazol-2-yl)pyridin-3-yl)-4-(methylthio)phenyl cycloheptylcarbamate] | 11.9 µM (≈ 5.05 µg/mL) | 31 min | improved plasma stability, improved aqueous solubility, or improved plasma stability and aqueous solubility | > 10000 nM | 153 nM | 153 nM | 
4 | O=C(NC1CCCCCC1)Oc1cc(F)cc(-c2cncc(-c3nnco3)c2)c1 [Example 198, 3-(5-(1,3,4-oxadiazol-2-yl)pyridin-3-yl)-5-fluorophenyl cycloheptylcarbamate] | 5.7 µM (≈ 2.26 µg/mL) | 4.7 min |  | > 10000 nM | 132 nM | 132 nM | 
5 | O=C(NC1CCCCCC1)Oc1cccc(-c2cncc(-c3ncn[nH]3)c2)c1 [Example 225, 3-(5-(1H-1,2,4-triazol-5-yl)pyridin-3-yl)phenyl cycloheptyl carbamate] | 8.6 µM (≈ 3.25 µg/mL) | 47 min | improved plasma stability, improved aqueous solubility, or improved plasma stability and aqueous solubility | ~10000 nM | 176 nM | 176 nM | 
6 | O=C(NC1CCCCCC1)Oc1ccc(O)c(-c2cncc(-c3ncn[nH]3)c2)c1 [Example 231, 3-(5-(1H-1,2,4-triazol-5-yl)pyridin-3-yl)-4-hydroxyphenyl cycloheptylcarbamate] | 78.8 µM (≈ 31 µg/mL) | 634 min | improved plasma stability, improved aqueous solubility, or improved plasma stability and aqueous solubility | > 10000 nM | 137 nM | 137 nM | 
7 | O=C(NC1CCCCC1)Oc1cccc(-c2cncc(-c3nnco3)n2)c1 [Example 267, 3-(6-(1,3,4-oxadiazol-2-yl)pyrazin-2-yl)phenyl cyclohexylcarbamate] | 73.6 µM (≈ 26.9 µg/mL) | 12 min |  | > 10000 nM | 140 nM | 140 nM | 
8 | NC(=O)c1cccc(-c2cccc(OC(=O)NC3CCCCC3)c2)c1 [URB597, reference compound] | 2.8 µM (≈ 0.948 µg/mL) | 47 min |  | > 50000 nM |  |  | Cmax [4]: ~200 ng/mL
